Target: T1, human P2X4 (Homo sapiens, UniProt Q99571)
T1 construct: expressed in transfected cells
T1 sequence (Q99571 1-388): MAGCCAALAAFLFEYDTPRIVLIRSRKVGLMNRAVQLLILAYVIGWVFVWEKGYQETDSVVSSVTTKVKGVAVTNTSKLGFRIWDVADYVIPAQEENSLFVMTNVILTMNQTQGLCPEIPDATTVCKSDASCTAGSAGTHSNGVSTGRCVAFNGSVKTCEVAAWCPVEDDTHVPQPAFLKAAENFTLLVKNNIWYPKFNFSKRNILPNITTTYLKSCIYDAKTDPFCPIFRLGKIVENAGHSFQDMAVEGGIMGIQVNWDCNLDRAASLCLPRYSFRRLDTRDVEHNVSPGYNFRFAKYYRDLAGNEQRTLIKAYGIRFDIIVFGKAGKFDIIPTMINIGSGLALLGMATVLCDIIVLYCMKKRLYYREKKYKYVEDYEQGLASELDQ
Test: Human P2X4 HEK Cell FLIPR Assay
Assay type: cell-based
Conditions: HEK293 stably expressing human P2X4, agonist Bz-ATP 3 μM (EC80); for IC50: read-out: Human P2X4 HEK Cells (FLIPR Assay) avg IC50
Description: Compounds were tested on a HEK293 cell line stably expressing human P2X4. Cells were cultured on poly-D-lysine-coated 384-well plates at a density of 15,000 cells/well and incubated overnight at 37° C., 5% CO2. P2X4 function was assessed by measuring intracellular calcium fluxes caused by Benzoylbenzoyl-ATP (Bz-ATP) using the calcium-chelating dye Fluo8-AM (Molecular Devices) with the Fluorescent Imaging Plate Reader Tetra (FLIPR^Tetra; Molecular Devices CA). On the day of the assay, the medium was removed and the cells were incubated for 30 min at 37° C. and 5% CO2 in 30 μl of dye buffer (Hank's balanced salt solution, 10 mM HEPES, 1.8 mM CaCl2, 1 mM MgCl2, 2 mM probenecid, 5 mM D-glucose monohydrate, 5 μM Fluo8-AM, pH=7.4). Compounds diluted in probenecid buffer (Hank's balanced salt solution, 10 mM HEPES, 1.8 mM CaCl2, 1 mM MgCl2, 2 mM probenecid, 5 mM D-glucose monohydrate, pH=7.4) at ten concentrations ranging from 25 μM to 1 nM (final concentration) were dispensed and incubated for 30 min at room temperature. […] The final assay volume was 50 μl and final DMSO concentration was 0.5%.
The fluorescence intensity reflecting intracellular calcium changes was recorded before and after Bz-ATP addition, at an excitation and emission wavelengths of 470-495 nm and 515-575 nm respectively.
The compounds were tested in triplicates and fluorescence intensity raw data normalized to the agonist control and fitted to the four-parameter logistic equation:
Y=Bottom+(Top−Bottom)/(1+10^((Log IC50−X)*HillSlope))
Assay plate acceptance was based on the signal window (S/B)[…] and the reference compound pIC50 within ±3σ the mean of historic pIC50 of the compound. Failure to meet two of the three criteria determined exclusion of the plate's results.

## CC(=O)N(c1cc(F)cc(C#N)c1)c1cc(NC(=O)Cc2c(Cl)cccc2Cl)ccn1 [Example 146, N-(3-Cyan-5-fluorphenyl)-N-{4-[2-(2,6-dichlorphenyl)acetamido]pyridin-2-yl}acetamide]
  Human P2X4 HEK Cells (FLIPR Assay) avg Efficacy: 103%
  IC50: 337 nM

## CC(=O)N(c1ccc(F)c(F)c1)c1cc(NC(=O)Cc2c(Cl)cccc2Cl)cnn1 [Example 200, N-{5-[2-(2,6-dichlorophenyl)acetamido]pyridazin-3-yl}-N-(3,4-difluorophenyl)acetamide]
  Human P2X4 HEK Cells (FLIPR Assay) avg Efficacy: 91%
  IC50: 465 nM

## CC(=O)N(c1cc(NC(=O)Cc2c(Cl)cccc2Cl)ccn1)c1ccccc1Cl [Example 109, N-(2-chlorophenyl)-N-{4-[2-(2,6-dichlorophenyl)acetamido]pyridin-2-yl}acetamide]
  Human P2X4 HEK Cells (FLIPR Assay) avg Efficacy: 100%
  IC50: 643 nM

## CC(=O)N(c1cc(NC(=O)Cc2ccc(F)cc2Cl)ccn1)c1ccc(C)cc1C [Example 174, N-{4-[2-(2-Chlor-4-fluorphenyl)acetamido]pyridin-2-yl}-N-(2,4-dimethylphenyl)acetamide]
  Human P2X4 HEK Cells (FLIPR Assay) avg Efficacy: 103%
  IC50: 528 nM

## CC(=O)N(c1ccc(F)c(F)c1)c1cc(NC(=O)Cc2ccccc2Cl)cnn1 [Example 199, N-{5-[2-(2-chlorophenyl)acetamido]pyridazin-3-yl}-N-(3,4-difluorophenyl)acetamide]
  Human P2X4 HEK Cells (FLIPR Assay) avg Efficacy: 86%
  IC50: 447 nM

## CC(=O)N(c1cc(F)cc(F)c1)c1cc(NC(=O)Cc2ccc(F)cc2Cl)cnn1 [Example 207, N-{5-[2-(2-chloro-4-fluorophenyl)acetamido]pyridazin-3-yl}-N-(3,5-difluorophenyl)acetamide]
  Human P2X4 HEK Cells (FLIPR Assay) avg Efficacy: 96%
  IC50: 477 nM

## CC(=O)N(c1cc(NC(=O)Cc2cccc(F)c2Cl)ccn1)c1ccccc1F [Example 117, N-{4-[2-(2-chloro-3-fluorophenyl)acetamido]pyridin-2-yl}-N-(2-fluorophenyl)acetamide]
  Human P2X4 HEK Cells (FLIPR Assay) avg Efficacy: 95%
  IC50: 789 nM

## CC(=O)N(c1cc(F)c(C)c(F)c1)c1cc(NC(=O)Cc2ccc(F)cc2Cl)ccn1 [Example 93, N-{4-[2-(2-chloro-4-fluorophenyl)acetamido]pyridin-2-yl}-N-(3,5-difluoro-4-methylphenyl)acetamide]
  Human P2X4 HEK Cells (FLIPR Assay) avg Efficacy: 98%
  IC50: 705 nM

## CC(=O)N(c1ccc(S(C)(=O)=O)c(F)c1)c1cc(NC(=O)Cc2c(Cl)cccc2Cl)ccn1 [Example 82, N-{4-[2-(2,6-dichlorophenyl)acetamido]pyridin-2-yl}-N-[3-fluoro-4-(methanesulfonyl)phenyl]acetamide]
  Human P2X4 HEK Cells (FLIPR Assay) avg Efficacy: 97%
  IC50: 504 nM

## CC(=O)N(c1ccc(S(C)(=O)=O)c(F)c1)c1cc(NC(=O)Cc2cccc(F)c2Cl)ccn1 [Example 81, N-{4-[2-(2-chloro-3-fluorophenyl)acetamido]pyridin-2-yl}-N-[3-fluoro-4-(methanesulfonyl)phenyl]acetamide]
  Human P2X4 HEK Cells (FLIPR Assay) avg Efficacy: 97%
  IC50: 895 nM

## CC(=O)N(c1cc(F)c(C)c(F)c1)c1cc(NC(=O)Cc2cccc(F)c2Cl)ccn1 [Example 94, N-{4-[2-(2-chloro-3-fluorophenyl)acetamido]pyridin-2-yl}-N-(3,5-difluoro-4-methylphenyl)acetamide]
  Human P2X4 HEK Cells (FLIPR Assay) avg Efficacy: 97%
  IC50: 710 nM

## CC(=O)N(c1cc(C)cc(C#N)c1)c1cc(NC(=O)Cc2cccc(F)c2Cl)ccn1 [Example 177, N-{4-[2-(2-Chlor-3-fluorphenyl)acetamido]pyridin-2-yl}-N-(3-cyan-5-methylphenyl)acetamide]
  Human P2X4 HEK Cells (FLIPR Assay) avg Efficacy: 96%
  IC50: 578 nM

## CC(=O)N(c1cc(NC(=O)Cc2c(F)cccc2Cl)ccn1)c1ccccc1C(F)F [Example 168, N-{4-[2-(2-Chlor-6-fluorphenyl)acetamido]pyridin-2-yl}-N-[2-(difluormethyl)phenyl]acetamide]
  Human P2X4 HEK Cells (FLIPR Assay) avg Efficacy: 99%
  IC50: 761 nM

## CC(=O)N(c1cc(NC(=O)Cc2cccc(F)c2Cl)ccn1)c1ccccc1C(F)F [Example 167, N-{4-[2-(2-Chlor-3-fluorphenyl)acetamido]pyridin-2-yl}-N-[2-(difluormethyl)phenyl]acetamide]
  Human P2X4 HEK Cells (FLIPR Assay) avg Efficacy: 100%
  IC50: 677 nM

## CC(=O)N(c1cc(NC(=O)Cc2ccccc2Cl)ccn1)c1ccc(F)cc1Cl [Example 150, N-(2-Chlor-4-fluorphenyl)-N-{4-[2-(2-chlorphenyl)acetamido]pyridin-2-yl}acetamide]
  Human P2X4 HEK Cells (FLIPR Assay) avg Efficacy: 102%
  IC50: 297 nM

## CC(=O)N(c1cc(NC(=O)Cc2cccc(F)c2Cl)ccn1)c1ccc(C)cc1C [Example 171, N-{4-[2-(2-Chlor-3-fluorphenyl)acetamido]pyridin-2-yl}-N-(2,4-dimethylphenyl)acetamide]
  Human P2X4 HEK Cells (FLIPR Assay) avg Efficacy: 103%
  IC50: 511 nM

## CC(=O)N(c1ccccc1)c1cc(NC(=O)Cc2c(Cl)cccc2Cl)cnn1 [Example 185, N-{5-[2-(2,6-dichlorophenyl)acetamido]pyridazin-3-yl}-N-phenylacetamide]
  Human P2X4 HEK Cells (FLIPR Assay) avg Efficacy: 101%
  IC50: 438 nM

## CC(=O)N(c1cc(F)cc(F)c1)c1cc(NC(=O)Cc2c(Cl)cccc2Cl)cnn1 [Example 204, N-{5-[2-(2,6-dichlorophenyl)acetamido]pyridazin-3-yl}-N-(3,5-difluorophenyl)acetamide]
  Human P2X4 HEK Cells (FLIPR Assay) avg Efficacy: 95%
  IC50: 383 nM

## CC(=O)N(c1ccccc1)c1cc(NC(=O)Cc2ccccc2Cl)cnn1 [Example 187, N-{5-[2-(2-chlorophenyl)acetamido]pyridazin-3-yl}-N-phenylacetamide]
  Human P2X4 HEK Cells (FLIPR Assay) avg Efficacy: 100%
  IC50: 700 nM

## CC(=O)N(c1cccc(C(F)(F)F)c1)c1cc(NC(=O)Cc2ccc(F)cc2Cl)ccn1 [Example 7, N-{4-[2-(2-chloro-4-fluorophenyl)acetamido]pyridin-2-yl}-N-[3-(trifluoromethyl)phenyl]acetamide]
  Human P2X4 HEK Cells (FLIPR Assay) avg Efficacy: 97%
  IC50: 846 nM

## CC(=O)N(c1ccc(OC(F)F)cc1)c1cc(NC(=O)Cc2ccccc2Cl)ccn1 [Example 47, N-{4-[2-(2-chlorophenyl)acetamido]pyridin-2-yl}-N-[4-(difluoromethoxy)phenyl]acetamide]
  Human P2X4 HEK Cells (FLIPR Assay) avg Efficacy: 98%
  IC50: 519 nM

## CC(=O)N(c1cc(NC(=O)Cc2ccccc2Cl)ccn1)c1ccc(C)cc1C [Example 170, N-{4-[2-(2-Chlorphenyl)acetamido]pyridin-2-yl}-N-(2,4-dimethylphenyl)acetamide]
  Human P2X4 HEK Cells (FLIPR Assay) avg Efficacy: 104%
  IC50: 468 nM

## CC(=O)N(c1ccc(S(C)(=O)=O)c(Cl)c1)c1cc(NC(=O)Cc2ccccc2Cl)ccn1 [Example 157, N-[3-Chlor-4-(methylsulfonyl)phenyl]-N-{4-[2-(2-chlorphenyl)acetamido]pyridin-2-yl}acetamide]
  Human P2X4 HEK Cells (FLIPR Assay) avg Efficacy: 97%
  IC50: 644 nM

## COc1c(F)cc(N(C(C)=O)c2cc(NC(=O)Cc3ccc(F)cc3Cl)ccn2)cc1F [Example 97, N-{4-[2-(2-chloro-4-fluorophenyl)acetamido]pyridin-2-yl}-N-(3,5-difluoro-4-methoxyphenyl)acetamide]
  Human P2X4 HEK Cells (FLIPR Assay) avg Efficacy: 89%
  IC50: 461 nM

## CC(=O)N(c1cc(F)cc(F)c1)c1cc(NC(=O)Cc2c(F)cccc2Cl)cnn1 [Example 208, N-{5-[2-(2-chloro-6-fluorophenyl)acetamido]pyridazin-3-yl}-N-(3,5-difluorophenyl)acetamide]
  Human P2X4 HEK Cells (FLIPR Assay) avg Efficacy: 91%
  IC50: 669 nM

## CC(=O)N(c1cc(F)cc(C#N)c1)c1cc(NC(=O)Cc2ccccc2Cl)ccn1 [Example 145, N-{4-[2-(2-Chlorphenyl)acetamido]pyridin-2-yl}-N-(3-cyan-5-fluorphenyl)acetamide]
  Human P2X4 HEK Cells (FLIPR Assay) avg Efficacy: 98%
  IC50: 234 nM

## CC(=O)N(c1cc(NC(=O)Cc2ccc(F)cc2Cl)ccn1)c1ccc(F)cc1Cl [Example 151, N-(2-Chlor-4-fluorphenyl)-N-{4-[2-(2-chlor-4-fluorphenyl)acetamido]pyridin-2-yl}acetamide]
  Human P2X4 HEK Cells (FLIPR Assay) avg Efficacy: 104%
  IC50: 355 nM
